Source: PubChem BioAssay (NCI)
“And” between values parts separate entries of the source, which are not always exact repeats. Equal entries are not always repeated.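 All cell lines were grown in 96-well plates and treated with compound for 48 hours. Here, GI50 denotes the concentration required for 50% inhibition of growth. TGI: concentration producing complete growth inhibition.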

The compounds below were run on SK-OV-3 ovarian (assay: growth of human tumour cells (NCI), 48 h).
With CC(C)c1ccc(/C=C2/C=C(c3ccc4ccccc4c3)OC2=O)cc1 the TGI was greater than 100 µM.
Compound COc1ccc(/C=C2\CCC(C)C3=C2NC(=S)NC3c2ccc(OC)c(OC)c2)cc1OC (stereo not given) has a TGI greater than 31.6 µM.
Compound COc1ccc(C(OCC2OC(n3cc(C)c(=O)[nH]c3=O)CC2n2cc(Cn3cc(I)c(=O)[nH]c3=O)nn2)(c2ccccc2)c2ccccc2)cc1 (stereo not given) has a TGI greater than 100 µM.
With O=S1(=O)NC(=NCc2c[nH]c3ccccc23)N(c2ccccc2)c2ccncc21 the TGI was greater than 100 µM.
Compound COc1ccc(CNc2nc(NCc3ccc(OC)c(OC)c3)nc(NC3CCCCC3)n2)cc1 has a TGI greater than 100 µM.
C=C(C1=CC(=O)C(C)(C)O1)[C@@H]1CC=C([C@@H]2CC[C@H]3[C@@]2(C)CC[C@H]2C(C)(C)C(=O)[C@H](O)C[C@]32C)[C@H](O)O1 gave a TGI of 27.9 µM.
CC1=CC2C(O1)C1C(=O)C=CC(=O)C1=CC2[N+](=O)[O-] (stereo not given) showed a TGI greater than 100 µM.
With C=C(Br)C(C)(Cl)CCC(Br)C(C)(C)Cl (stereo not given) the TGI was greater than 100 µM.
Cc1c2cnccc2c(C)c2c1c1ccccc1n2CCCN was tested, and the GI50 was 0.278 µM and the TGI was 1.71 µM and 1.25 µM.
Compound O=C(CCC(=O)c1ccc(Cl)cc1)NO has a TGI greater than 100 µM.
COc1c(C)c(C/C=C(\C)CCCCO[Si](c2ccccc2)(c2ccccc2)C(C)(C)C)c(OC)c(OC)c1OC gave a TGI greater than 46.4 µM.
Compound CN1CCN([C@H]2C[C@H]3[C@@H]4CC=C5C[C@@H](O)CC[C@]5(C)[C@H]4CC[C@]3(C)C2=O)CC1 has a TGI greater than 100 µM.
With C[C@@]12C[C@@H](c3ccccc3O1)N1CCCCSC1=N2 the TGI was greater than 100 µM.
CCOC(=O)Nn1c(C)nnc1-c1ccccc1 showed a TGI greater than 100 µM.
Work on Cc1cn(C2CC(n3cc(Cn4cc(I)c(=O)[nH]c4=O)nn3)C(CO)O2)c(=O)[nH]c1=O (stereo not given) yielded a TGI greater than 100 µM.
In the case of Cc1cc(O)c2c(=O)c3ccccc3[nH]c2c1, the TGI is reported as greater than 100 µM.
Compound N=c1n(C(=O)N2CCCC2)c2cc(Cl)ccc2n1C1=NCCN1 has a TGI greater than 100 µM.

The compounds below were run on TK-10 renal (assay: growth of human tumour cells (NCI), 48 h).
Work on CCNC(=S)N/N=C/c1cc([N+](=O)[O-])ccc1O yielded a TGI of 79.8 µM.
Work on Cc1cc(N(CCC#N)CCC#N)ccc1/C(N=Nc1ccc(Cl)cc1)=N\NC(=O)c1ccccc1 yielded a TGI greater than 100 µM.
Work on CCc1ccc(CCN2CCCCC2)nc1 yielded a TGI greater than 100 µM.
O=C(NNC(=O)c1ccccc1SSc1ccccc1C(=O)NNC(=O)c1ccccc1S)c1ccccc1S was tested, and the TGI was greater than 100 µM.
In the case of O=C1/C(=C/c2ccc(O)cc2)CC/C1=C\c1ccc(O)cc1, the TGI is reported as greater than 100 µM.
In the case of CC(C)C1/C(=N/O)CC(c2ccccc2)N(N=O)C1c1ccccc1 (stereo not given), the TGI is reported as greater than 100 µM.
Compound COc1cc(/C=C2\S/C(=N/Nc3nc(-c4ccc(Br)cc4)cs3)NC2=O)cc(OC)c1OC has a TGI of 36.6 µM.
With CCCNC1=C2CC(C)CC(OC)[C@@H](O)[C@H](C)/C=C(\C)C(OC(N)=O)C(OC)/C=C\C=C(/C)C(=O)NC(=CC1=O)C2=O (stereo not given in full) the GI50 was 11.6 µM and the TGI was greater than 100 µM.
Work on CCC1(O)CC2CC(=O)OC2C1O (stereo not given) yielded a TGI greater than 100 µM.
With C(/c1ccco1)=c1/nc(-c2ccccc2)n2c1nc1ccccc12 the TGI was greater than 100 µM.
Work on Oc1cccc2c(Cl)ccnc12 yielded a TGI greater than 100 µM.
Cc1cccc(/C=N/NC(=S)Nc2ccccc2)n1 was tested, and the TGI was greater than 95.3 µM.
In the case of N#CC1=C(N)N(c2ccccc2)C(c2ccco2)C1(C#N)C#N (stereo not given), the TGI is reported as 31.5 µM.
In the case of Cc1cc(=O)[nH]c(NN2C(Cl)C(=O)C2c2ccccc2O)n1 (stereo not given), the TGI is reported as greater than 100 µM.
Work on CC(C)c1ccc(/C=C2/C=C(c3ccc4ccccc4c3)OC2=O)cc1 yielded a TGI greater than 100 µM.
Compound COc1ccc(/C=C2\CCC(C)C3=C2NC(=S)NC3c2ccc(OC)c(OC)c2)cc1OC (stereo not given) has a TGI greater than 31.6 µM.
With COc1ccc(C(OCC2OC(n3cc(C)c(=O)[nH]c3=O)CC2n2cc(Cn3cc(I)c(=O)[nH]c3=O)nn2)(c2ccccc2)c2ccccc2)cc1 (stereo not given) the TGI was greater than 100 µM.
Compound O=S1(=O)NC(=NCc2c[nH]c3ccccc23)N(c2ccccc2)c2ccncc21 has a TGI greater than 100 µM.
COc1ccc(CNc2nc(NCc3ccc(OC)c(OC)c3)nc(NC3CCCCC3)n2)cc1 gave a TGI greater than 100 µM.
Compound C=C(C1=CC(=O)C(C)(C)O1)[C@@H]1CC=C([C@@H]2CC[C@H]3[C@@]2(C)CC[C@H]2C(C)(C)C(=O)[C@H](O)C[C@]32C)[C@H](O)O1 has a TGI of 2.64 µM.
Work on CC1=CC2C(O1)C1C(=O)C=CC(=O)C1=CC2[N+](=O)[O-] (stereo not given) yielded a TGI of 30.6 µM.
Compound C=C(Br)C(C)(Cl)CCC(Br)C(C)(C)Cl (stereo not given) has a TGI greater than 100 µM.
Work on Cc1c2cnccc2c(C)c2c1c1ccccc1n2CCCN yielded a TGI of 1.83 µM.
Compound O=C(CCC(=O)c1ccc(Cl)cc1)NO has a TGI greater than 100 µM.
In the case of COc1c(C)c(C/C=C(\C)CCCCO[Si](c2ccccc2)(c2ccccc2)C(C)(C)C)c(OC)c(OC)c1OC, the TGI is reported as greater than 31.6 µM.
Compound CN1CCN([C@H]2C[C@H]3[C@@H]4CC=C5C[C@@H](O)CC[C@]5(C)[C@H]4CC[C@]3(C)C2=O)CC1 has a TGI greater than 100 µM.
C[C@@]12C[C@@H](c3ccccc3O1)N1CCCCSC1=N2 gave a TGI greater than 100 µM.
CCOC(=O)Nn1c(C)nnc1-c1ccccc1 showed a TGI greater than 100 µM.
Work on Cc1cn(C2CC(n3cc(Cn4cc(I)c(=O)[nH]c4=O)nn3)C(CO)O2)c(=O)[nH]c1=O (stereo not given) yielded a TGI greater than 100 µM.
Cc1cc(O)c2c(=O)c3ccccc3[nH]c2c1 gave a TGI greater than 100 µM.
N=c1n(C(=O)N2CCCC2)c2cc(Cl)ccc2n1C1=NCCN1 showed a TGI greater than 100 µM.

What follows are compounds tested on UO-31 renal (assay: growth of human tumour cells (NCI), 48 h).
CCNC(=S)N/N=C/c1cc([N+](=O)[O-])ccc1O showed a TGI greater than 100 µM.
Cc1cc(N(CCC#N)CCC#N)ccc1/C(N=Nc1ccc(Cl)cc1)=N\NC(=O)c1ccccc1 was tested, and the TGI was greater than 100 µM.
Compound CCc1ccc(CCN2CCCCC2)nc1 has a TGI greater than 100 µM.
O=C(NNC(=O)c1ccccc1SSc1ccccc1C(=O)NNC(=O)c1ccccc1S)c1ccccc1S was tested, and the TGI was greater than 100 µM.
In the case of O=C1/C(=C/c2ccc(O)cc2)CC/C1=C\c1ccc(O)cc1, the TGI is reported as greater than 100 µM.
In the case of CC(C)C1/C(=N/O)CC(c2ccccc2)N(N=O)C1c1ccccc1 (stereo not given), the TGI is reported as 82.9 µM.
With COc1cc(/C=C2\S/C(=N/Nc3nc(-c4ccc(Br)cc4)cs3)NC2=O)cc(OC)c1OC the TGI was 16.7 µM.
Work on CCCNC1=C2CC(C)CC(OC)[C@@H](O)[C@H](C)/C=C(\C)C(OC(N)=O)C(OC)/C=C\C=C(/C)C(=O)NC(=CC1=O)C2=O (stereo not given in full) yielded a GI50 of 0.558 µM and a TGI of 32.2 µM.
CCC1(O)CC2CC(=O)OC2C1O (stereo not given) was tested, and the TGI was greater than 100 µM.
With C(/c1ccco1)=c1/nc(-c2ccccc2)n2c1nc1ccccc12 the TGI was greater than 100 µM.
Oc1cccc2c(Cl)ccnc12 showed a TGI greater than 95.3 µM.
Cc1cccc(/C=N/NC(=S)Nc2ccccc2)n1 gave a TGI greater than 31.2 µM.
Work on N#CC1=C(N)N(c2ccccc2)C(c2ccco2)C1(C#N)C#N (stereo not given) yielded a TGI of 33.6 µM.
For Cc1cc(=O)[nH]c(NN2C(Cl)C(=O)C2c2ccccc2O)n1 (stereo not given), the TGI was greater than 78.1 µM.
In the case of CC(C)c1ccc(/C=C2/C=C(c3ccc4ccccc4c3)OC2=O)cc1, the TGI is reported as greater than 100 µM.
In the case of COc1ccc(/C=C2\CCC(C)C3=C2NC(=S)NC3c2ccc(OC)c(OC)c2)cc1OC (stereo not given), the TGI is reported as greater than 31.6 µM.
Work on COc1ccc(C(OCC2OC(n3cc(C)c(=O)[nH]c3=O)CC2n2cc(Cn3cc(I)c(=O)[nH]c3=O)nn2)(c2ccccc2)c2ccccc2)cc1 (stereo not given) yielded a TGI greater than 100 µM.
O=S1(=O)NC(=NCc2c[nH]c3ccccc23)N(c2ccccc2)c2ccncc21 showed a TGI greater than 100 µM.
With COc1ccc(CNc2nc(NCc3ccc(OC)c(OC)c3)nc(NC3CCCCC3)n2)cc1 the TGI was greater than 100 µM.
C=C(C1=CC(=O)C(C)(C)O1)[C@@H]1CC=C([C@@H]2CC[C@H]3[C@@]2(C)CC[C@H]2C(C)(C)C(=O)[C@H](O)C[C@]32C)[C@H](O)O1 showed a TGI of 2.88 µM.
CC1=CC2C(O1)C1C(=O)C=CC(=O)C1=CC2[N+](=O)[O-] (stereo not given) was tested, and the TGI was 10.4 µM.
With C=C(Br)C(C)(Cl)CCC(Br)C(C)(C)Cl (stereo not given) the TGI was greater than 100 µM.
In the case of Cc1c2cnccc2c(C)c2c1c1ccccc1n2CCCN, the GI50 is reported as 0.0685 µM and the TGI is reported as 1.88 µM and 0.225 µM.
O=C(CCC(=O)c1ccc(Cl)cc1)NO gave a TGI greater than 100 µM.
Work on COc1c(C)c(C/C=C(\C)CCCCO[Si](c2ccccc2)(c2ccccc2)C(C)(C)C)c(OC)c(OC)c1OC yielded a TGI of 19.4 µM.
For CN1CCN([C@H]2C[C@H]3[C@@H]4CC=C5C[C@@H](O)CC[C@]5(C)[C@H]4CC[C@]3(C)C2=O)CC1, the TGI was greater than 100 µM.
Work on C[C@@]12C[C@@H](c3ccccc3O1)N1CCCCSC1=N2 yielded a TGI greater than 100 µM.
CCOC(=O)Nn1c(C)nnc1-c1ccccc1 was tested, and the TGI was greater than 100 µM.
